Measured values taken from patent US11196057B2, “Metal-air cell with performance enhancing additive” (ARIZONA BOARD OF REGENTS ACTING FOR AND ON BEHALF OF …, priority 2010, dated 2021).
Where two headings read alike, the source gives them in different places.

Key:
[1] = pKa values of different proton sources (protic additives); conditions: for pKa (H20): in water; for pKa: water
[2] = Properties of host ionic liquid BDMeIm Tf (gravimetric, Cottrell); assay type: physicochemical
Procedure: A series of protic additives were added into an ionically conductive medium in order to examine the effects of such additives upon oxygen reduction reaction (“ORR”). An aprotic ionic liquid BdMelm:Tf was used as the host for the additive. A photograph of an experimental setup is provided in FIG. 5A, with FIG. 5B showing a cartoon of a close-up of the measurement tube/chamber. […] See e.g., FIG. 5F. Also, the IL had the benefit of the superacidity of Tf, which minimizes solvent leveling effects. Additional benefits of this dry aprotic IL system include also invariant electrode, high reversibility, and high reactivity, as shown in cyclic voltammagrams (CV) in FIG. 5C and the result of the Kouteeky-Levich ([…]) analysis with respect to the number of electrons per O2 vs. potential in FIG. 5D.

[3] = aqueous system; cited from earlier work

For `Cc1nccn1C.O=S(=O)(O)C(F)(F)F` [1,2-dimethylimidaozlium triflate], the “pKa (H20)” value [1] was 7.4.

`OCC(F)(F)F` [2,2,2-trifluoroethanol] gave a pKa [1] of 12.5.

For `CCCCN=C(N(C)C)N(C)C` [2-butyl-1,1,3,3-tetramethylguanidinium triflate], the pKa [1] was 13.6.

With `CCCCn1cc[n+](C)c1C.O=S(=O)([O-])C(F)(F)F` [BDMelm Tf] the density [2] was “about 1.4 g/mL” and the oxygen solubility ([2]; measured gravimetrically and through Cottrell) was “about 2.5 mM”.

With `O.O=S(=O)(O)C(F)(F)F` [hydronium triflate] the “pKa (H20)” value [1] was −1.7.

For `CCN(C)CC.O=S(=O)(O)C(F)(F)F` [n,n-diethyl-n-methylammonium triflate], the “pKa (H20)” value [1] was 10.6.

In the case of `OO` [peroxide], the pKa [3] is listed as 11.63.

In the case of `[O]O` [superoxide], the pKa [3] is listed as “about 4.7”.
